Experimental data: US10477863B2, “Use of herbicidal compositions for controlling unwanted vegetation” (BASF SE, priority 2015, dated 2019)

System: Amaranthus palmeri
Test: Field test, post-emergence spray: visual injury of Palmer amaranth rated 0 to 100
Assay type: in vivo
Conditions: 3 days after treatment, 0.25% non-ionic surfactant
Text: Dicamba was applied as Engenia™ herbicide [BAPMA salt-(bis(3-aminopropyl)methylamine))], while 2,4-DB was applied as the commercially available Butyrac® 200 (dimethylamine salt). Herbicides were applied at an appropriate weight of each product dissolved in 1 liter of water. All herbicide treatments were applied with 0.25% by volume of a non-ionic surfactant (Induce®; an adjuvant composition consisting of alkyl aryl polyoxyalkane ethers, alkanolamides, dimethyl siloxane and free fatty acids). The spray solution was applied by a CO2 powered backpack sprayer delivering the spray solution at a rate of 185 liter/ha. The spray solution was applied to a field naturally populated with Palmer amaranth (Amaranthus palmeri) with an average height of 4-6 inches in height, however, plants both larger and smaller plants were in the field at the time of application as well. Palmer amaranth was assessed for visual injury 3 days after treatment and injury was rated on a scale from 0 to 100, whereby 0 equals no herbicidal response and 100 equals complete control of the Palmer amaranth.

| Structure (SMILES) | herbicidal activity against Amaranthus palmeri (% control), found (2,4-DB 17.5 g/ha a.i., Exp. No. 2) | herbicidal activity against Amaranthus palmeri (% control), found (2,4-DB 35 g/ha a.i., Exp. No. 3) | herbicidal activity against Amaranthus palmeri (% control), found (2,4-DB 52.5 g/ha a.i., Exp. No. 4) | herbicidal activity against Amaranthus palmeri (% control), found (dicamba 420 g/ha a.i., Exp. No. 1) |
| --- | --- | --- | --- | --- |
| O=C(O)CCCOc1ccc(Cl)cc1Cl [2,4-DB, 4-(2,4-Dichlorophenoxy)butanoic acid] | 0 % control | 5 % control | 15 % control |  |
| COc1c(Cl)ccc(Cl)c1C(=O)O [dicamba, 3,6-Dichloro-2-methoxybenzoic acid] |  |  |  | 60 % control |
